{"source": "patent US9180164B2", "about": "“Compounds and methods of modulating angiogenesis” (THE CLEVELAND CLINIC FOUNDATION, priority 2011, dated 2015)", "key": {"HUVECs": {"test_system": "HUVECs", "assay": "Cell adhesion assay with inhibiting peptide", "format": "cell-based, Human", "details": "HUVECs on integrin ligand coated plates", "experimental": "Cells were washed twice with sterile phosphate buffered saline (PBS) and re-suspended in serum-free DMEN. The cell suspensions were added to integrin ligand-coated wells and placed in a humidified incubator for 45 min. The wells were gently washed three times with DMEM and photographs were taken. The numbers of attached and spread cells per field were counted.\nTo examine endothelial cell adhesion to various ECM proteins following inhibition of expression of specific integrin subunits, HUVECs were plated on various integrin ligand coated plates and ability of EC to adhere to the distinct extracellular matrix components were tested after administration of a control peptide (YGRKKRRQRRR G DTANNPL FKEATSTFT-COOH) (SEQ ID NO: 43) or with equal amount of beta-3 integrin cytoplasmic domain inhibitory peptide (YGRKKRRQRRR G DTANNPLYpKEATSTFT-COOH) (SEQ ID NO: 44)."}, "neovascularization": {"test_system": "neovascularization", "assay": "Matrigel plug assay, hemoglobin extracted from Matrigel", "format": "in vivo, mice", "details": "50 mM peptide in Matrigel with VEGF (60 ng/mL), subcutaneous, 7 days", "protocol": "Matrigel plug assays were performed in age- and sex-matched C57/B16 background mice. […] After 7 days, the animals were euthanized and dissected. Matrigel plugs were removed and digested using 5 mL Drabkin reagent and neovascularization was assessed using a hemoglobin assay as per the manufacturer's protocol (FIG. 16).\nAngiogenic response was measured based on the amount of hemoglobin extracted from Matrigel."}, "endothelial cells": {"test_system": "endothelial cells", "assay": "VEGF-induced endothelial cell migration with inhibiting peptide", "format": "cell-based", "experimental": "To examine the effect of the inhibiting peptide on endothelial cell migration, VEGF-induced migratory activity of endothelial cells was measured after administration of a control peptide (YGRKKRRQRRR G DTANNPL FKEATSTFT-COOH) (SEQ ID NO: 43) or with equal amount of beta-3 integrin cytoplasmic domain inhibitory peptide (YGRKKRRQRRR G DTANNPLYpKEATSTFT-COOH) (SEQ ID NO: 44) to the endothelial cells."}}, "data": [{"sequence": "YGRKKRRQRRR G DTANNPL Yp KEATSTFT-COOH", "values": [{"measurement": "effect on cell adhesion compared to a control peptide", "setting": "HUVECs", "result": "no effect on cell adhesion"}, {"measurement": "hemoglobin concentration lower in Matrigel plugs compared to control peptide", "setting": "neovascularization", "result": "at least 3.5 fold"}, {"measurement": "VEGF-induced endothelial cell migration compared to the control peptide", "setting": "endothelial cells", "result": "prevented endothelial cell migration"}, {"measurement": "capillary formation compared to the control peptide", "setting": "endothelial cells", "result": "inhibited capillary formation"}]}]}
